Experimental data: patent US20080287371A1, “MACROCYCLIC ANTAGONISTS OF THE MOTILIN RECEPTOR FOR MODULATION OF THE MIGRATING MOTOR COMPLEX” (Tranzyme Pharma Inc., priority 2007, published 2008)
Entries after “also recorded” stand apart in the source; their conditions may differ.

Legend:
MMC = conditions: dog; cited from earlier work
[1] = test system: post-prandial gastrointestinal activity; experiment: Strain gauge animal model (Method F): post-prandial gastrointestinal activity in fed dogs; type: in vivo, beagle dogs
Method: Gastrointestinal motility was measured for 24 hours by telemetry in freely moving beagle dogs instrumented with strain gauges on both the antrum and duodenum. The method utilized for the strain gauges was based upon that in the literature. (Edelbroek, M.; Schuurkes, J.; De Ridder, W.; Horowitz, M.; Dent, J.; Akkermans, L. Dig. Dis. Sci. 1995, 40, 901-911; Briejer, M. R.; Prins, N. H.; Schuurkes, J. A. Neurogastroenterol. Motil. 2001 13, 465-472.) Analogous methods that can be used are known. (Dog: Itohb, Z.; Honda, R.; Takeuchi, S.; Aizawa, I.; Takayanagi, R. Gastroenterol. Jpn. 1977, 12, 275-283; Iwai, T.; Nakamura, H.; Takanashi, H.; et al. Can. J. Physiol. Pharmacol. 1998, 76, 1103-1109; Dog and guinea pig, Ohno, T.; Kamiyama, Y.; Aihara, R.; Nakabayashi, T.; Mochiki, E.; Asao, T.; Kuwano, H. Neurogastroenterol. Motil. 2006, 18, 129-135; Rat: Bunce, K. T.; Elswood, C. J.; Ball, M. T. Br. J. Pharmacol. 1991, 102, 811-816; Guinea pig: Cooke, H. J.; Wang, Y. Z.; Frieling, T.; Wood, J. D. Am. J. Physiol. 1991, 261, G833-G840.) […]
Intraluminal pressures were recorded with a manometric assembly incorporating a sleeve sensor with a 4.8 cm length (outer diameter 5.4 mm) to monitor pyloric pressure waves. […]

[2] = test system: migrating motor complex (MMC); experiment: Strain gauge animal model (Method F): migrating motor complex in fasted dogs; type: in vivo, beagle dogs; conditions: for effect on the migrating motor complex (MMC): fasted beagle dogs
Method: Gastrointestinal motility was measured for 24 hours by telemetry in freely moving beagle dogs instrumented with strain gauges on both the antrum and duodenum. The method utilized for the strain gauges was based upon that in the literature. (Edelbroek, M.; Schuurkes, J.; De Ridder, W.; Horowitz, M.; Dent, J.; Akkermans, L. Dig. Dis. Sci. 1995, 40, 901-911; Briejer, M. R.; Prins, N. H.; Schuurkes, J. A. Neurogastroenterol. Motil. 2001 13, 465-472.) Analogous methods that can be used are known. (Dog: Itohb, Z.; Honda, R.; Takeuchi, S.; Aizawa, I.; Takayanagi, R. Gastroenterol. Jpn. 1977, 12, 275-283; Iwai, T.; Nakamura, H.; Takanashi, H.; et al. Can. J. Physiol. Pharmacol. 1998, 76, 1103-1109; Dog and guinea pig, Ohno, T.; Kamiyama, Y.; Aihara, R.; Nakabayashi, T.; Mochiki, E.; Asao, T.; Kuwano, H. Neurogastroenterol. Motil. 2006, 18, 129-135; Rat: Bunce, K. T.; Elswood, C. J.; Ball, M. T. Br. J. Pharmacol. 1991, 102, 811-816; Guinea pig: Cooke, H. J.; Wang, Y. Z.; Frieling, T.; Wood, J. D. Am. J. Physiol. 1991, 261, G833-G840.)
Calibrated strain gauges (Schuurkes, J. A. J.; Van der Schee, E. J.; Grashuis, J. L.; Charbon, G. R. A. in Gastrointestinal Motility in Health and Disease; Duthie, H. L., Ed., MTP Press, Lancaster (UK), 1978, pp 647-654) and bipolar extracellular electrodes were implanted under aseptic conditions in each of four female beagle dogs. (Bass, P.; Wiley, J. N. J. Appl. Physiol. 1972, 32, 567-570.) The strain gauges were sutured onto the seromuscular layer parallel to the axis of the circular muscle, on the distal antrum (3 cm orad to the distal pyloric loop), proximal duodenum (3 cm and 6 cm aborad to the pylorus) and distal pyloric muscle loop. The bipolar extracellular electrodes were implanted onto the scrosal side of the distal antrum and proximal duodenum 2 cm orad and aborad to the pylorus. The lead wires were brought out via a subcutaneous tunnel in the left costal flank through a stab wound between the scapulae. Postsurgically, the lead wires were soldered to the connectors and protected appropriately.
In the same surgical incision, a gastrostomy and duodenostomy were performed. The gastrostomy was situated anteriorly in the midventral region between the lesser and greater curvature 2 cm orad to the nerve of Latarget and kept patent with a stainless steel cannula (internal diameter 1.4 cm, length 7.0 cm). The duodenostomy was situated 10 cm aborad to the pylorus and was kept patent with a cannula of smaller diameter (internal diameter 0.9 cm, length 7.5 cm). A thin tubing (outer diameter 2.2 mm) was pulled across the pylorus and attached to the caps of the gastric and duodenal cannulae in order to facilitate placement of the manometric assembly postsurgically. The greater omentum was wrapped around the cannulae to secure positioning and then the cannulae were tightly capped between experiments to permit normal feeding. Dogs were allowed to recover for at least two weeks prior to conduct of any experiments.
Intraluminal pressures were recorded with a manometric assembly incorporating a sleeve sensor with a 4.8 cm length (outer diameter 5.4 mm) to monitor pyloric pressure waves. (Dent, J. Gastroenterology 1976, 71, 263-267.) Four side holes were spaced at 1.6-cm intervals along the sleeve length. Side holes at each end of the sleeve were used to measure antral and duodenal pressures and transmucosal potential difference (TMPD) simultaneously. (Arndorfer, R. C.; Stef, J. J.; Doss, W. J.; Linehan, J. H.; Hogan, W. J. Gastroenterol. 1977, 73, 23-27.) Two additional side holes were placed 3.3 and 1.6 cm orad to the proximal end of the sleeve (antral sites) and another two side holes were placed 1.6 and 3.3 cm aborad to the distal end of the sleeve (duodenal sites). All channels were perfused with degassed distilled water at 0.3 mL/min, except for the side holes used to measure the antroduodenal TMPD, which were perfused with saline. […]

[3] = test system: fundic tone / gastric accommodation; experiment: Animal model of fundic accommodation (Method E, barostat, milk meal); type: in vivo, Beagle dogs
Method: Fundic accommodation in response to a 200 mL milk meal was measured using a barostat. This can be considered as a model for functional dyspepsia, at least some occurrences of which is known to be a result of poor gastric accommodation (Tack, J.; Piessevaux, H.; Coulie, B.; Caenepeel, P.; Janssens, J. Gastroenterology 1998, 115, 1346-1352; DiStefano, M.; Micelli, E.; Mazzocchi, S.; Tana, P.; Corazza, G. R. Eur. Rev. Med. Pharmacol. Sci. 2005, 9, 23-28; Kindt, S.; Tack, J. Gut 2006, 55, 1685-1691; van den Elzen, B. D.; Boeckxstaens, G. E. Aliment. Pharmacol. Ther. 2006, 23, 1499-1510.). The described method is based upon a literature method. (Meulemans A. Schuurkes J. Neurogastroenterol. Motil. 1995, 7, 151-155.) The use of gallbladder volume has been linked to the motilin effect in functional dyspepsia and also can be used as a biomarker to test the effect of an antagonist on FD in humans. (Kamerling, I. M. C.; Van Haarst, A. D.; De Kam, M. L.; Cohen, A. F.; Masclee, A. A. M.; Burggraaf, J. Aliment, Pharmacol. Ther. 2004, 19, 797-804.) Other methods can also be utilized for this assessment and have been reviewed. (DeSchepper, H. U.; Cremonini, F.,; Chitkara, D.; Camilleri, M. Neurogastroenterol. Motil. 2004, 16, 275-285.) The dog is often used as an appropriate model for GI diseases due to the similarity in the alimentary tracts between dogs and humans. Additionally, the dog motilin receptor has been identified and characterized with the expression profile determined. It shares 71% homology to the human receptor and 72% to the rabbit receptor. (Ohshiro, H.; Nonaka, M.; Ichikawa, K. Regul. Pept. 2008, 146, 80-87.)
Beagle dogs were trained to stand quietly in Pavlov frames. Each was implanted using the following procedure with a gastric and duodenal cannula under general anesthesia with standard aseptic precautions. After a medium laparotomy, an incision was made through the gastric wall in the longitudinal direction between the greater and the lesser curvature, 2 cm above the nerves of Latarjet. The gastric cannula (diameter 18 mm) was secured to the gastric wall by means of an appropriate suture and then brought out via a stab wound at the left quadrant of the hypochondrium. The duodenal cannula (diameter 4 mm) was implanted at about 12 cm distal to the pylorum. An incision of approximately 1 cm was made through the duodenal wall 3 cm distally from the site of implantation. The cannula was brought into the duodenum though this incision. The top of the cannula was brought out of the duodenal wall at the place of implantation and secured to the wall via suture. Afterwards, the duodenum was closed and the duodenal cannula was brought out via a stab wound at the right quadrant of the hypochondrium. Dogs were allowed a recovery period of 2 weeks during which they were treated with antibiotics.
Variations in gastric tone were measured by recording changes in the volume of air within an intragastric bag maintained at constant pressure (6 mm Hg) by a barostat. The barostat consists of an air injection system which is connected by a double-lumen polyvinyl tube to an ultrathin flaccid polyethylene bag with maximum volume of approximately 700 mL. Gastric tonic contractions cause the barostat to withdraw air to maintain the pressure, while relaxation triggers air injection to maintain pressure. In that manner, intrabag volume is an inverse measure of proximal gastric tone. Differences in gastric tone were recorded using a computer. […]

Row | SMILES | effect on the MMC (MMC) | post-prandial CA, % of pre-drug baseline ([1]; 0.30 mg/kg i.v., 2 h after standard 75 g meal, during first hour, n=2, vehicle 106±10%) | post-prandial activity ([1]; 0.30 mg/kg, i.v., fed dogs) | effect on the migrating motor complex (MMC) ([2]; 0.30 mg/kg, i.v.) | contraction amplitude (CA), % of baseline CA ([2]; 1.0 mg/kg i.v., after 4 h) | contraction amplitude (CA), % of baseline CA ([2]; 1.0 mg/kg i.v., over the first hour) | time to first MMC ([2]; 1.0 mg/kg i.v., controls 99±15 min, P<0.01, n=4, mean±SEM) | effect on the migrating motor complex (MMC) ([2]; 1 mg/kg, i.v., N=6) | phase III activity of the MMC ([2]; 0.10, 0.30, 1.0 mg/kg, i.v., after overnight fast) | time until CA returned to baseline levels ([2]; 0.10 and 0.30 mg/kg doses, n=2) | gastric accommodation in response to the meal ([3]; 0.30 mg/kg i.v. bolus, continuous motilin infusion) | effect on motilin-induced fundic contraction ([3]; 0.30 mg/kg i.v., exogenous motilin 0.010 mg/kg/h i.v.) | AUC of fundic relaxation (0-to-5 min.) ([3]; 0.30 mg/kg i.v., motilin infusion 0.010 mg/kg/h i.v., milk meal, vehicle 18.7±3.3, n=4, p<0.05) | natural relaxation of the stomach in response to a meal (baseline, no motilin) ([3]; 0.1, 0.3 and 1.0 mg/kg, i.v., preliminary experiment) | motilin-induced increase in fundic tone, dose dependence ([3]; FIG. 3, cross-over design, N=6 dogs)
1 | Cc1[nH]cnc1CN1CCc2c(c3ccccc3n2C)C1=O [Alosetron] | block the MMC |  |  |  |  |  |  |  |  |  |  |  |  |  | 
2 | CC(C)[C@H]1NC(=O)[C@@H](Cc2cccc(C(F)(F)F)c2)NCCOc2ccccc2CCCNC(=O)[C@H](CN(C)C)NC1=O [Compound 502] |  | 58±4% | briefly attenuate post-prandial activity | lesser delay of MMCs | 52±21% | 5±2% | 225 ± 31 min | delay the migrating motor complex (MMC) | suppressed the regular occurrence of phase III activity of the MMC in a dose-dependent manner | 3 h | improved gastric accommodation | antagonized the effects of exogenous motilin; also recorded: antagonized the fundic contraction induced by infusion of exogenous motilin | 27.3 ± 3.5 mL/h | did not disturb this baseline phenomenon | prevented this increase in a dose-dependent manner
